Laboratory results taken from US20170106011A1, “METHODS OF TREATING TRAUMATIC BRAIN INJURY AND SEQUELAE” (Cantex Pharmaceuticals, Inc., priority 2015, published 2017).
Entries after “also recorded” stand apart in the source; their conditions may differ.

Assays:
[1] = USP anticoagulant assay; format: biochemical
[2] = system: middle cerebral artery occlusion animal model; assay: secondary brain injury after middle cerebral artery occlusion in an animal model; format: in vivo
[3] = system: patients with moderate TBI; assay: clinical trial of ODSH infusion in moderate TBI; format: in vivo; conditions: ODSH infusion added to best supportive care
Protocol: FIG. 4 outlines the phase II clinical trial of ODSH for treating TBI.
A clinical trial is conducted.
Enrollment criteria are (i) moderate TBI: Glasgow Coma Score (GCS) of 9-12, or if patient is intubated, GCS 7-9; (ii) cerebral contusions on CT scan. Patients are randomized into 2 groups. Both groups receive best supportive care. This is an active treatment control. One group additionally receives infusion of ODSH.

[4] = comparator, Rao et al. 2010; cited from earlier work

**Q.** For 2-O, 3-O-desulfated heparin [ODSH], which “anticoagulant activity in the USP anticoagulant assay” value [1] is on record?
**A.** less than 9 U/mg

**Q.** What about the “anticoagulant activity in the USP anticoagulant assay (e.g. value)” value [1] of the same substance?
**A.** 7±0.3 U

**Q.** And the secondary brain injury [2]?
**A.** reduction of secondary brain injury; also recorded: reduced secondary brain injury

**Q.** And the inflammatory biomarkers [3]?
**A.** reduces

**Q.** What about the “Glasgow Outcome Scale scores” value ([3]; at 6 months) of the same substance?
**A.** improves

**Q.** What about the “Montreal Cognitive Assessment (MoCA) score” value ([3]; six months post-injury) of the same substance?
**A.** improves

**Q.** Which “activity in the USP anticoagulant assay” value [4] does the source give for unfractionated heparin here?
**A.** 165-190 U/mg
